Entries after “also recorded” stand apart in the source; their conditions may differ. Read-outs that look alike come from different tables or passages of the source.
Assays:
Lu1, lung cancer = assay: In vitro cytotoxicity, human tumor panel: Lu1; assay type: cell-based; conditions: Homo sapiens, read-out: ED50 Lu1
Procedure: Cytotoxicity assay. Compounds 1–9 were evaluated for cytotoxic activity against a panel of human cancer cell lines, including KB-V1 in the presence and absence of VLB, according to an established protocol (68).

[1] = test system: SKVLB (ovarian adenocarcinoma, multidrug resistance); assay: Multidrug resistance inhibition in SKVLB (pGp +ve); assay type: cell-based, human
KB-3 cells = assay: Growth inhibitory potential (sulforhodamine B cell survival assay): KB-3; assay type: cell-based; conditions: Homo sapiens, KB3, 72 h, read-out: IC50 KB-3
Procedure: One part of a natural product drug discovery program involves monitoring the potential of plant extracts to reverse multiple drug resistance. […] To investigate the potential of plant extracts or compounds to reverse multidrug-resistance, KB-V1 cells are treated with different concentrations of plant extracts or compounds in the presence (1 μg/ml) or absence of vinblastine.
Cytotoxic potential. The cytotoxic potential of test substances with KB-3, KB-V1 and KB-8-5 cells was determined as described previously (24). Briefly, various concentrations of test compounds (dissolved in 10 μl of 10% DMSO) were transferred to 96-well plates, and 190 μl aliquots of cell suspensions (5×10^4 cells/ml) were added to each well. The plates then were incubated for 72 hours at 37° C. (100% humidity with a 5% CO2 atmosphere in air), and 100 μl of cold 20% aqueous trichloroacetic acid were added to the growth medium in each well to fix the cells. The cultures were incubated at 4° C. for 30 minutes, washed, air-dried, stained with sulforhodamine B solution, and washed with 1% acetic acid. Finally, 200 μl of 10 mM Tris base were added to each well and the optical densities were determined at 515 nm utilizing an ELISA plate reader. In each case, a zero-day control was performed by adding an equivalent number of cells to several wells and incubating at 37° C. for 30 minutes, and processing as described above. Optical density values obtained with the zero-day control were subtracted, and cell survival, relative to control (solvent-treated) cultures, was calculated. The cytotoxic potential of the compounds with CEM and CEM/VLB100 cells was determined as described by Beck et al. (30). Cells were grown in 24-well plates at a density of 5–6×10^5 cells/ml. At 48 hours, the cell number was determined using a Coulter Counter, with a channelizer to distinguish cells from debris.

MDR1 mRNA = assay: RT-PCR analysis of MDR1 mRNA expression; assay type: cell-based, human; conditions: KB-V1 and CEM/VLB100 cells, 72 hours; pervilleine A up to 34 μM (up to 45 μM), verapamil up to 44 μM
Procedure: RT-PCR analysis of MDR1 mRNA expression. […] Total RNA was isolated from cultured KB-3, KB-V1, CEM and CEM/VLB100 cells with TRIzol reagent (Life Technologies, Inc.) (33), and quantified by UV absorbance. The reverse transcription of RNA was performed by using the SUPERScript™ Preamplification System (Life Technologies, Inc.) in a final volume of 21 μl containing 5×First Strain Synthesis Buffer, 2.5 mM MgCl2, 0.5 mM each dNTP, […], 2 units of RNAse inhibitor, 200 units of Super-Scrip II reverse transcriptase, 0.5 μg oligo (dT)12-18, 2 μg of total RNA (3 μg for CEM and CEM/VLB100 cells), and DEPC-treated water. After incubation at 42° C. for 50 minutes, the room temperature reaction was terminated by heating to 70° C. for 15 minutes. To the newly synthesized cDNA (2 μl), a PCR mixture containing 1.4 mM MgCl2 (1.2 mM for CEM and CEM/VLB100 cells), 2.5 units of Taq polymerase, 0.2 μmol (0.6 μmol for CEM and CEM/VLB100 cells) of primers based on the MDR1 gene (35) and custom synthesized by Ana-Gen Technology, Inc. (Palo Alto, Calif.) (5′-[…]-3′; 5′-[…]-3′) (35). As an internal control, 0.125 μmol (0.1 μmol for CEM and CEM/VLB100 cells) of primers for GAPDH (5′-[…]-3′; 5′-[…]-3′) (36) were added (final volume to 50 μl). […]

MDR1 (Pgp) expression = assay: Western blot analysis of MDR1 expression; assay type: cell-based, human; conditions: KB-V1 and CEM/VLB100 cells, 72 hours; pervilleine A up to 45 μM, verapamil up to 44 μM
Procedure: Western blot analysis of MDR1 expression. […] Cells (7.5×10^5 cells as starting cell amount) were harvested using SDS lysis buffer [20 mM Tris-HCl (pH 6.8) containing 0.4% SDS (w/v), 5% glycerol (v/v), 0.006% bromophenol blue, 2% β-mer-captoethanol], and lysates were boiled for 10 minutes and stored at −20° C. Aliquots of lysates were used for protein determinations (bicinchoninic acid protein assay kit with BSA as standard), and equivalent amounts of protein were electrophoresed by SDS-PAGE with precast 7.5% Tris-glycine acrylamide gels (Novex, San Diego, Calif.). Following transfer to polyvinylidene difluoride membranes, nonspecific binding sites were blocked with 5% nonfat dry milk. Blotting was performed with rabbit polyclonal antibody mdr (Ab-1) (Oncogene Research Products, Inc.) and analyzed by streptavidin horseradish peroxidase-conjugated secondary antibody (Amersham Life Science) and visualized using a ECL western blotting detection system (Amersham Life Science).

KB-V1 cells = assay: In vivo hollow fiber test: KB-V1; parameters: species or system NCr nu/nu mice
Procedure: In vivo hollow fiber test. […] Confluent monolayers of KB-3, KB-V1 or KB-8-5 cells were harvested, collected by centrifugation and resuspended in conditioned medium at a concentration of 7.5×10^5 cells/ml.
Test compounds were administrated once daily by intraperitoneal injection from day 3–6 after implantation. Body weights were measure daily.
After incubating at 37° C. for 4 hours, the culture medium was aspirated and the samples were washed twice with normal saline containing 2.5% protamine sulfate solution by overnight incubation at 4° C. […] The formazan was extracted from each sample with DMSO (250 μl/well) for 4 hours at room temperature on a rotation platform.

[2] = summation of single-agent inhibitions

Question: For `COc1cc(C=CC(=O)O[C@H]2[C@@H](O)[C@@H]3C[C@H](OC(=O)c4cc(OC)c(OC)c(OC)c4)C[C@H]2N3C)cc(OC)c1OC` [Compound 3, 3α-(3,4,5-trimethoxybenzoyloxy)-6β-(3,4,5-trimethoxycinnamoyloxy)-7β-hydroxytropane], which IC50 (Lu1, lung cancer) is on record?
Answer: > 20 mg/L

Question: What about the IC50 ([1]; Homo sapiens, read-out: IC50 BSKVLB (pGp + ve)) of the same compound?
Answer: > 10 µM

Question: What about the IC50 ([1]; read-out: IC50 SKVLB (pGp + ve), addition of adriamycin, Addition of 1 μm adriamycin) of the same compound?
Answer: 0.65 µM

Question: What about the IC50 (KB-3 cells) of the same compound?
Answer: 24 µM

Question: What about the “effect on MDR1 mRNA (transcription of MDR1)” value (MDR1 mRNA) of the same compound?
Answer: no significant effect; also recorded: did not significantly alter; also recorded: did not significantly affect

Question: And the “effect on levels of Pgp (MDR1 protein expression)” value (MDR1 (Pgp) expression)?
Answer: did not alter expression levels; also recorded: did not significantly alter; also recorded: did not significantly affect

Question: And the “inhibition of cell growth when used in combination with vinblastine” value (KB-V1 cells; KB-V1 or KB-8-5 cells in hollow fibers implanted into NCr nu/nu mice)?
Answer: up to 75%

Question: And the “Calculated inhibition (vinblastine + reversing agent as single agents), KB-V1, i.p. site” value (KB-V1 cells; [2])?
Answer: 2%

Question: And the “Calculated inhibition (vinblastine + reversing agent as single agents), KB-V1, s.c. site” value (KB-V1 cells; [2])?
Answer: 3.3%

Question: What about the “Observed inhibition from coadministration with vinblastine, KB-V1, s.c. site” value (KB-V1 cells; vinblastine 250 μg/kg + reversing agent 0.136 mmol/kg) of the same compound?
Answer: 14.6 (P = 0.188) %

Question: And the “Observed inhibition from coadministration with vinblastine, KB-V1, i.p. site” value (KB-V1 cells; vinblastine 250 μg/kg + reversing agent 0.136 mmol/kg, i.p. injection once daily days 3–6, listed as pervilleine A)?
Answer: 68.6 (P < 0.0001) %

Question: What about the “Growth inhibition, single agent, KB-V1, s.c. site” value (KB-V1 cells; vinblastine 250 μg/kg, reversing agents 0.136 mmol/kg, i.p. injection once daily days 3–6) of the same compound?
Answer: 3.3%

Question: And the “Growth inhibition, single agent, KB-V1, i.p. site” value (KB-V1 cells; vinblastine 250 μg/kg, reversing agents 0.136 mmol/kg, i.p. injection once daily days 3–6, fibers retrieved day 7, MTT)?
Answer: 1%

Source: patent US6989396B2, “Tropane alkaloid multidrug resistance inhibitors from Erythroxylum pervillei and use of the same” (The Board of Trustees of the University of Illinois, priority 2001, dated 2006)
